Experiments:
IL-17A : IL-17RA binding = molecular target: T1, IL-17A : IL-17RA binding (Homo sapiens, UniProt Q16552, K93Q); assay: IL-17A(FLAG-tagged):IL-17RA(His-tagged) binding disruption Eu-HTRF assay, Protocol 1; conditions: FLAG-IL-17A 2.5 nM at 2x final concentration; average if tested more than once
T1 construct: Name: IL-17A-Flag
In short: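 IC50 came from a one-site competition fit of the acceptor/donor (665/620 nm) HTRF ratio. His-tagged IL-17RA, Eu-anti-FLAG and D2-anti-His were added after a 1 h rt compound preincubation with FLAG-tagged IL-17A dimer in PBS/0.01% Triton X-100, followed by 2 h at rt before reading.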

[1] = system: IL-17A-induced G-CSF production in human normal keratinocyte (NHK); assay: NHK assay: IL-17A-induced G-CSF production in normal human keratinocytes; assay type: cell-based; conditions: 24 h, IL-17A 5 ng/mL, average if tested more than once
In short: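 Compound titrations are first mixed with recombinant human IL-17A for 1 h at room temperature. The mixture goes onto adult normal human keratinocytes (final IL-17A 5 ng/mL, 5% FBS, 0.2% DMSO) for 24 h at 37 °C. Secreted G-CSF is then measured by HTRF and IC50 fitted.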

T1 sequence (Q16552 with tags, fused parts or gaps K93Q): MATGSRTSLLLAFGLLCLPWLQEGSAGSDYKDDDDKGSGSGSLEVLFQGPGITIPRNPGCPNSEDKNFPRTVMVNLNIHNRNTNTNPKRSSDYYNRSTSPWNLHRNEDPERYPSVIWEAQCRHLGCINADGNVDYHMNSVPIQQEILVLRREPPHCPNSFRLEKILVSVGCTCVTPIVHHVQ

| SMILES | IC50 (IL-17A : IL-17RA binding) [µM] | IC50 ([1]; Homo sapiens, Keratinocyte) [µM] | IC50 [1] [µM] |
| --- | --- | --- | --- |
| CC(CC(=O)N[C@@H](c1ccc2nc([C@H](CC(C)(C)C(F)(F)F)NC(=O)c3nonc3C3CC3)[nH]c2c1)C1CC1)C(F)(F)F (single isomer, unassigned) [Example 181, 4-Cyclopropyl-N—((S)-1-(6-((R)-cyclopropyl((R*)-4,4,4-trifluoro-3-methylbutanamido)methyl)-1H-benzo[d]imidazol-2-yl)-4,4,4-trifluoro-3,3-dimethylbutyl)-1,2,5-oxadiazole-3-carboxamide] | < 0.05 | < 0.05 |  |
| Cc1nonc1C(=O)N[C@@H](CC(C)(C)C(F)(F)F)c1nc2ccc([C@H](NC(=O)CC3CC3(F)F)C3CC3)cc2[nH]1 (single isomer, unassigned) [Example 183, N—((S)-1-(6-((R)-Cyclopropyl(2-((R*)-2,2-difluorocyclopropyl)acetamido)methyl)-1H-benzo[d]imidazol-2-yl)-4,4,4-trifluoro-3,3-dimethylbutyl)-4-methyl-1,2,5-oxadiazole-3-carboxamide] | < 0.05 | > 0.1 |  |
| C[C@@H](NC(=O)CCC(F)(F)F)c1ccc2[nH]c(C(CC(C)(C)C(F)(F)F)NC(=O)c3cnn(CC4CC4)n3)nc2c1 (single isomer, unassigned) [Example 191, 2-(Cyclopropylmethyl)-N—((R*)-4,4,4-trifluoro-3,3-dimethyl-1-(5-((R)-1-(4,4,4-trifluorobutanamido)ethyl)-1H-benzo[d]imidazol-2-yl)butyl)-2H-1,2,3-triazole-4-carboxamide] | > 0.1 | > 0.1 |  |
| CC(C)n1ncc(F)c1C(=O)NC(CC(C)(C)C(F)(F)F)c1nc2cc([C@@H](C)NC(=O)CCC(F)(F)F)ccc2[nH]1 (single isomer, unassigned) [Example 194, 4-Fluoro-1-isopropyl-N—((S*)-4,4,4-trifluoro-3,3-dimethyl-1-(5-((R)-1-(4,4,4-trifluorobutanamido)ethyl)-1H-benzo[d]imidazol-2-yl)butyl)-1H-pyrazole-5-carboxamide] | > 0.1 | > 0.1 |  |
| C[C@@H](NC(=O)CCC(F)(F)F)c1ccc2[nH]c(C(CC(C)(C)C(F)(F)F)NC(=O)c3ncnn3CC3CC3)nc2c1 (single isomer, unassigned) [Example 195, 1-(Cyclopropylmethyl)-N—((S*)-4,4,4-trifluoro-3,3-dimethyl-(5-((R)-1-(4,4,4-trifluorobutanamido)ethyl)-1H-benzo[d]imidazol-2-yl)butyl)-1H-1,2,4-triazole-5-carboxamide] | > 0.1 | > 0.1 |  |
| CC(C)n1ncnc1C(=O)NC(CC(C)(C)C(F)(F)F)c1nc2cc([C@@H](C)NC(=O)CCC(F)(F)F)ccc2[nH]1 (single isomer, unassigned) [Example 196, 1-Isopropyl-N—((S*)-4,4,4-trifluoro-3,3-dimethyl-1-(5-((R)-1-(4,4,4-trifluorobutanamido)ethyl)-1H-benzo[d]imidazol-2-yl)butyl)-1H-1,2,4-triazole-5-carboxamide] | > 0.1 | > 0.1 |  |
| Cc1nonc1C(=O)NC(CC(C)(C)C(F)(F)F)c1nc2cc([C@@H](C)NC(=O)CCC(F)(F)F)ccc2[nH]1 (single isomer, unassigned) [Example 198, 4-Methyl-N—((S*)-4,4,4-trifluoro-3,3-dimethyl-1-(5-((R)-1-(4,4,4-trifluorobutanamido)ethyl)-1H-benzo[d]imidazol-2-yl)butyl)-1,2,5-oxadiazole-3-carboxamide] | 0.05 to 0.1 | > 0.1 |  |
| C[C@@H](NC(=O)CCC(F)(F)F)c1ccc2[nH]c(C(CC(C)(C)C(F)(F)F)NC(=O)c3cnn(CC4CC4)n3)nc2c1 (single isomer, unassigned) [Example 218, 2-(Cyclopropylmethyl)-N—((S*)-4,4,4-trifluoro-3,3-dimethyl-1-(5-((R)-1-(4,4,4-trifluorobutanamido)ethyl)-1H-benzo[d]imidazol-2-yl)butyl)-2H-1,2,3-triazole-4-carboxamide] | > 0.1 |  | > 0.1 |
| CC(NC(=O)CCC(F)(F)F)c1ccc2nc([C@H](CC(C)(C)C(F)(F)F)NC(=O)c3ccnn3CCC(F)(F)F)[nH]c2c1 (single isomer, unassigned) [Example 229, N—((S)-4,4,4-Trifluoro-3,3-dimethyl-1-(6-((S*)-1-(4,4,4-trifluorobutanamido)ethyl)-1H-benzo[d]imidazol-2-yl)butyl)-1-(3,3,3-trifluoropropyl)-1H-pyrazole-5-carboxamide] | > 0.1 | > 0.1 |  |
| CC(NC(=O)CCC(F)(F)F)c1ccc2nc([C@H](CC(C)(C)C(F)(F)F)NC(=O)c3ccnn3CCC(F)(F)F)[nH]c2c1 (single isomer, unassigned) [Example 230, N—((S)-4,4,4-Trifluoro-3,3-dimethyl-1-(6-((R*)-1-(4,4,4-trifluorobutanamido)ethyl)-1H-benzo[d]imidazol-2-yl)butyl)-1-(3,3,3-trifluoropropyl)-1H-pyrazole-5-carboxamide] | > 0.1 |  | 0.05 to 0.1 |
| CC(NC(=O)CCC(F)(F)F)c1ccc2nc([C@H](CC(C)(C)C(F)(F)F)NC(=O)c3ccnn3C(C)C)[nH]c2c1 (single isomer, unassigned) [Example 231, 1-Isopropyl-N—((S)-4,4,4-trifluoro-3,3-dimethyl-1-(6-((S*)-1-(4,4,4-trifluorobutanamido)ethyl)-1H-benzo[d]imidazol-2-yl)butyl)-1H-pyrazole-5-carboxamide] | > 0.1 | > 0.1 |  |
| CC(NC(=O)CCC(F)(F)F)c1ccc2nc([C@H](CC(C)(C)C(F)(F)F)NC(=O)c3ccnn3C(C)C)[nH]c2c1 (single isomer, unassigned) [Example 232, 1-Isopropyl-N—((S)-4,4,4-trifluoro-3,3-dimethyl-1-(6-((R*)-1-(4,4,4-trifluorobutanamido)ethyl)-1H-benzo[d]imidazol-2-yl)butyl)-1H-pyrazole-5-carboxamide] | > 0.1 |  | 0.05 to 0.1 |
| Cc1nonc1C(=O)N[C@H](c1nc2ccc([C@H](NC(=O)CC3CC(F)(F)C3)C3CC3)cc2[nH]1)[C@H]1C[C@H](CC(F)(F)F)C1 (single isomer, unassigned) [Example 245] | > 0.1 | > 0.1 |  |
| Cc1nonc1C(=O)N[C@H](c1nc2ccc([C@H](NC(=O)CC3CC(F)(F)C3)C3CC3)cc2[nH]1)C1CCCCO1 (single isomer, unassigned) [Example 252, N—((R)-(6-((R)-Cyclopropyl(2-(3,3-difluorocyclobutyl)acetamido)methyl)-1H-benzo[d]imidazol-2-yl)((R*)-tetrahydro-2H-pyran-2-yl)methyl)-4-methyl-1,2,5-oxadiazole-3-carboxamide] | > 0.1 | > 0.1 |  |

Now from value to compound, other results behind:

| IC50 (IL-17A : IL-17RA binding) [µM] | SMILES | IC50 ([1]; Homo sapiens, Keratinocyte) [µM] | IC50 [1] [µM] |
| --- | --- | --- | --- |
| < 0.05 | CC(CC(=O)N[C@@H](c1ccc2nc([C@H](CC(C)(C)C(F)(F)F)NC(=O)c3nonc3C3CC3)[nH]c2c1)C1CC1)C(F)(F)F (single isomer, unassigned) [Example 182, 4-Cyclopropyl-N—((S)-1-(6-((R)-cyclopropyl((S*)-4,4,4-trifluoro-3-methylbutanamido)methyl)-1H-benzo[d]imidazol-2-yl)-4,4,4-trifluoro-3,3-dimethylbutyl)-1,2,5-oxadiazole-3-carboxamide] |  | < 0.05 |
| 0.05 to 0.1 | Cc1nonc1C(=O)N[C@@H](CC(C)(C)C(F)(F)F)c1nc2ccc([C@H](NC(=O)CC3CC3(F)F)C3CC3)cc2[nH]1 (single isomer, unassigned) [Example 184, N—((S)-1-(6-((R)-Cyclopropyl(2-((S*)-2,2-difluorocyclopropyl)acetamido)methyl)-1H-benzo[d]imidazol-2-yl)-4,4,4-trifluoro-3,3-dimethylbutyl)-4-methyl-1,2,5-oxadiazole-3-carboxamide] |  | > 0.1 |
| < 0.05 | CCc1nonc1C(=O)NC(CC(C)(C)C(F)(F)F)c1nc2cc([C@@H](C)NC(=O)CCC(F)(F)F)ccc2[nH]1 (single isomer, unassigned) [Example 197, 4-Ethyl-N—((S*)-4,4,4-trifluoro-3,3-dimethyl-1-(5-((R)-1-(4,4,4-trifluorobutanamido)ethyl)-1H-benzo[d]imidazol-2-yl)butyl)-1,2,5-oxadiazole-3-carboxamide] | 0.05 to 0.1 |  |
| > 0.1 | C[C@@H](NC(=O)CCC(F)(F)F)c1ccc2[nH]c(C(CC(C)(C)C(F)(F)F)NC(=O)c3cnn(CCC(F)(F)F)n3)nc2c1 (single isomer, unassigned) [Example 219, N—((S*)-4,4,4-Trifluoro-3,3-dimethyl-1-(5-((R)-1-(4,4,4-trifluorobutanamido)ethyl)-1H-benzo[d]imidazol-2-yl)butyl)-2-(3,3,3-trifluoropropyl)-2H-1,2,3-triazole-4-carboxamide] | > 0.1 |  |
| > 0.1 | Cc1nonc1C(=O)N[C@H](c1nc2ccc([C@H](NC(=O)CC3CC(F)(F)C3)C3CC3)cc2[nH]1)[C@H]1C[C@@H](CC(F)(F)F)C1 (single isomer, unassigned) [Example 244] | > 0.1 |  |
| > 0.1 | CC(C)n1nccc1C(=O)N[C@H](c1nc2ccc([C@H](NC(=O)CC3CC(F)(F)C3)C3CC3)cc2[nH]1)C1CCCCO1 (single isomer, unassigned) [Example 253, N—((R)-(6-((R)-Cyclopropyl(2-(3,3-difluorocyclobutyl)acetamido)methyl)-1H-benzo[d]imidazol-2-yl)((R*)-tetrahydro-2H-pyran-2-yl)methyl)-1-isopropyl-1H-pyrazole-5-carboxamide] | > 0.1 |  |

Source: patent US20240376085A1 (Janssen Pharmaceutica NV, priority 2021, published 2024)
